Test results reported in ChEMBL document CHEMBL1147569, “Synthesis and structure-activity relationships of (R)-1-alkyl-3-[2-(2-amino)phenethyl]-5-(2-fluorophenyl)-6-methyluracils as human GnRH receptor antagonists” (Bioorg Med Chem Lett, 2004).
pIC50, pKi: −log10 of the molar value.

How the values were obtained:
[1] = target: T1, Gonadotropin-releasing hormone receptor (Homo sapiens, UniProt P30968); test: Binding affinity towards human gonadotropin-releasing hormone receptor expressed in HEK293 cells using des-Gly10-[125I]Tyr,5 DLeu,6 NMeLeu,7 Pro9-NEt GnRH as radioligand.; format: cell-based
T1 sequence (P30968 whole entry): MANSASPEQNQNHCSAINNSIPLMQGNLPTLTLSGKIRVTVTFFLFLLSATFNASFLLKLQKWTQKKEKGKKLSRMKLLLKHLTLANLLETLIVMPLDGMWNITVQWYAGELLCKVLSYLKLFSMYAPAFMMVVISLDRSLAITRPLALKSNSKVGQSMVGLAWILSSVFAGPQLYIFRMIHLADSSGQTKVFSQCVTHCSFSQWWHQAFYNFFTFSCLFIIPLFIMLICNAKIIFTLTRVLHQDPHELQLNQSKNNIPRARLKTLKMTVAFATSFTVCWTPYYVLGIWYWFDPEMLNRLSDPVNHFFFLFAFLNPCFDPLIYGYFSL

HEK293 = test: Inhibitory activity against GnRH (5 nM) stimulated [Ca2+] release in transfected cells; format: functional, cell-based; conditions: Homo sapiens

pKi [1]	SMILES	pIC50 (HEK293)
< 5.00	Cc1c(-c2ccccc2F)c(=O)n(C[C@H](N)c2ccccc2)c(=O)n1CCO	–
6.64	CCCCCn1c(C)c(-c2ccccc2F)c(=O)n(C[C@H](N)c2ccccc2)c1=O	–
8.40	Cc1c(-c2ccccc2F)c(=O)n(C[C@H](N)c2ccccc2)c(=O)n1Cc1ccccc1C(F)(F)F	–
< 5.00	Cc1c(-c2ccccc2F)c(=O)n(C[C@H](N)c2ccccc2)c(=O)n1CCc1ccccn1	–
6.59	Cc1c(-c2ccccc2F)c(=O)n(C[C@H](N)c2ccccc2)c(=O)n1C1CCCCC1	–
7.17	Cc1c(-c2ccccc2F)c(=O)n(C[C@H](N)c2ccccc2)c(=O)n1Cc1cccc(F)c1	–
7.11	Cc1c(-c2ccccc2F)c(=O)n(C[C@H](N)c2ccccc2)c(=O)n1Cc1ccccn1	–
8.22	Cc1c(-c2ccccc2F)c(=O)n(C[C@H](N)c2ccccc2)c(=O)n1Cc1c(F)cccc1F	–
< 5.00	Cc1c(-c2ccccc2F)c(=O)n(C[C@H](N)c2ccccc2)c(=O)n1CCN1CCNCC1	–
6.64	COc1ccccc1Cn1c(C)c(-c2ccccc2F)c(=O)n(C[C@H](N)c2ccccc2)c1=O	–
6.85	Cc1c(-c2ccccc2F)c(=O)n(C[C@H](N)c2ccccc2)c(=O)n1C(C)c1ccccc1 (some centres not stated)	–
7.24	Cc1c(-c2ccccc2F)c(=O)n(C[C@H](N)c2ccccc2)c(=O)n1Cc1ccccc1	–
6.15	Cc1c(-c2ccccc2F)c(=O)n(C[C@H](N)c2ccccc2)c(=O)n1Cc1cccnc1	–
6.70	Cc1c(-c2ccccc2F)c(=O)n(C[C@H](N)c2ccccc2)c(=O)n1CC1CCCCC1	–
6.00	Cc1c(-c2ccccc2F)c(=O)n(C[C@H](N)c2ccccc2)c(=O)n1CCc1ccccc1	–
6.37	Cc1ccc(Cn2c(C)c(-c3ccccc3F)c(=O)n(C[C@H](N)c3ccccc3)c2=O)o1	–
5.77	COCCn1c(C)c(-c2ccccc2F)c(=O)n(C[C@H](N)c2ccccc2)c1=O	–
5.96	Cc1c(-c2ccccc2F)c(=O)n(C[C@H](N)c2ccccc2)c(=O)n1CC1CC1	–
7.70	Cc1c(-c2ccccc2F)c(=O)n(C[C@H](N)c2ccccc2)c(=O)n1Cc1ccccc1F	–
< 5.00	Cc1c(-c2ccccc2F)c(=O)n(C[C@H](N)c2ccccc2)c(=O)n1CCN(C)C	–
7.57	Cc1c(-c2ccccc2F)c(=O)n(C[C@H](N)c2ccccc2)c(=O)n1Cc1ccccc1Cl	–
6.30	Cc1c(-c2ccccc2F)c(=O)n(C[C@H](N)c2ccccc2)c(=O)n1CC(C)C	–
9.15	Cc1c(-c2ccccc2F)c(=O)n(C[C@H](N)c2ccccc2)c(=O)n1Cc1c(F)cccc1Cl	8.55
7.48	Cc1c(-c2ccccc2F)c(=O)n(C[C@H](N)c2ccccc2)c(=O)n1Cc1ccc(F)cc1Cl	–
7.46	Cc1ccccc1Cn1c(C)c(-c2ccccc2F)c(=O)n(C[C@H](N)c2ccccc2)c1=O	–
7.12	Cc1c(-c2ccccc2F)c(=O)n(C[C@H](N)c2ccccc2)c(=O)n1Cc1ccc(F)cc1	–
